The text below walks through data of patent publication US20150258101A1 (Proximagen Limited, priority 2014, published 2015).

Assay [1] addresses T1, purified recombinantly expressed human SSAO (Homo sapiens, UniProt Q16853).
T1 construct: made in house
T1 sequence (Q16853 1-763): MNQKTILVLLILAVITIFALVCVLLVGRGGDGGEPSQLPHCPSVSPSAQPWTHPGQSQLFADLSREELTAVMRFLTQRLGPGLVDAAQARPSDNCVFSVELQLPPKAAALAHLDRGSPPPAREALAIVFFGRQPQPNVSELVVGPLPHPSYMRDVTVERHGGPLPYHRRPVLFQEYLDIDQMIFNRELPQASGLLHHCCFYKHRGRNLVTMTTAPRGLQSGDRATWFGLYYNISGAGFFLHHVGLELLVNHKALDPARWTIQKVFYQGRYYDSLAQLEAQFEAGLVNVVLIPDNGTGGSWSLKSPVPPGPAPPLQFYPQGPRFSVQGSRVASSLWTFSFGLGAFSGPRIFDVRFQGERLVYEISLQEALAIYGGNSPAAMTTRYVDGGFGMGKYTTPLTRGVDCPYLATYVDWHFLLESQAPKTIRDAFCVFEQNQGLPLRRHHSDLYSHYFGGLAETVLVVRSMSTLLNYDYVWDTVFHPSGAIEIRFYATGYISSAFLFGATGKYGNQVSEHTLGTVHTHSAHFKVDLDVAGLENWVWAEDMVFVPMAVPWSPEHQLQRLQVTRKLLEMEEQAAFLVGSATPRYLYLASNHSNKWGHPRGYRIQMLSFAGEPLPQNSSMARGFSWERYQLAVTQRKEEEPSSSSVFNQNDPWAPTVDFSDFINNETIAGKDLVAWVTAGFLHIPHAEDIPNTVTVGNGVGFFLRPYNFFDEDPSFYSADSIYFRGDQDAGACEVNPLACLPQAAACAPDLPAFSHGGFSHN
Description: SSAO enzyme inhibition assay (benzylamine substrate; hydrogen peroxide/HRP-coupled or 14C aldehyde detection). As to conditions: SSAO inhibitory activity, RT. Format: biochemical. A digest of the protocol: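 IC50 values came from a four-parameter logistic fit of % signal decrease versus DMSO control, with no-enzyme background subtracted. Two read-outs were used with human recombinant SSAO after ~15 min compound pre-incubation at RT. In the H2O2/HRP-Amplex read-out, enzyme was 1 ug/ml and benzylamine 100 uM (pH 7.4 phosphate), with resorufin fluorescence followed 1-2 h. In the 14C-benzaldehyde read-out (PBS), enzyme was 10 ug/ml and benzylamine 40 uM, run 1 h then acid-stopped.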

In assay [2] the target is T2, human ether a go-go related gene (hERG) K+ channel (Homo sapiens, UniProt Q12809).
T2 construct: a Chinese Hamster Lung cell line stably expressing the full length hERG channel; expressed in transfected cells; host or cells: Chinese Hamster Lung cell line
Description: hERG assay, IonWorks patch clamp electrophysiology. Format: cell-based. The settings on record: Chinese Hamster Lung cell line stably expressing hERG; max assay concentration 11 uM. The method, then:
Compounds of the invention were tested for inhibition of the human ether a go-go related gene (hERG) K^+ channel using IonWorks patch clamp electrophysiology. 8 Point concentration-response curves were generated on two occasions using 3-fold serial dilutions from the maximum assay concentration (11 uM). Electrophysiological recordings were made from a Chinese Hamster Lung cell line stably expressing the full length hERG channel. Single cell ion currents were measured in the perforated patch clamp configuration (100 ug/mL amphoterocin) at room temperature using an IonWorks Quattro instrument. The internal solution contained 140 mM KCl, 1 mM MgCl2, 1 mM EGTA and 20 mM HEPES and was buffered to pH 7.3. The external solution contained 138 mM NaCl, 2.7 mM KCl, 0.9 mM CaCl2, 0.5 mM MgCl2, 8 mM Na2HPO4 and 1.5 mM KH2PO4, and was buffered to pH 7.3. […] This sequence was repeated 5 times at a frequency of 0.25 Hz. Currents were measured from the tail step at the 5th pulse, and referenced to the holding current. Compounds were incubated for 6-7 min prior to a second measurement of the hERG signal using an identical pulse train. […] A control compound (quinidine) was used (see Table 20 below).
Background: The hERG channel carries a current that helps repolarise heart muscle cells.

The IC50 is the concentration that inhibits the measured activity by half.

Counter-ions that a name gives are not always drawn. Where only a bound is given, the exact number is not on record here.

T2 sequence (Q12809 whole entry): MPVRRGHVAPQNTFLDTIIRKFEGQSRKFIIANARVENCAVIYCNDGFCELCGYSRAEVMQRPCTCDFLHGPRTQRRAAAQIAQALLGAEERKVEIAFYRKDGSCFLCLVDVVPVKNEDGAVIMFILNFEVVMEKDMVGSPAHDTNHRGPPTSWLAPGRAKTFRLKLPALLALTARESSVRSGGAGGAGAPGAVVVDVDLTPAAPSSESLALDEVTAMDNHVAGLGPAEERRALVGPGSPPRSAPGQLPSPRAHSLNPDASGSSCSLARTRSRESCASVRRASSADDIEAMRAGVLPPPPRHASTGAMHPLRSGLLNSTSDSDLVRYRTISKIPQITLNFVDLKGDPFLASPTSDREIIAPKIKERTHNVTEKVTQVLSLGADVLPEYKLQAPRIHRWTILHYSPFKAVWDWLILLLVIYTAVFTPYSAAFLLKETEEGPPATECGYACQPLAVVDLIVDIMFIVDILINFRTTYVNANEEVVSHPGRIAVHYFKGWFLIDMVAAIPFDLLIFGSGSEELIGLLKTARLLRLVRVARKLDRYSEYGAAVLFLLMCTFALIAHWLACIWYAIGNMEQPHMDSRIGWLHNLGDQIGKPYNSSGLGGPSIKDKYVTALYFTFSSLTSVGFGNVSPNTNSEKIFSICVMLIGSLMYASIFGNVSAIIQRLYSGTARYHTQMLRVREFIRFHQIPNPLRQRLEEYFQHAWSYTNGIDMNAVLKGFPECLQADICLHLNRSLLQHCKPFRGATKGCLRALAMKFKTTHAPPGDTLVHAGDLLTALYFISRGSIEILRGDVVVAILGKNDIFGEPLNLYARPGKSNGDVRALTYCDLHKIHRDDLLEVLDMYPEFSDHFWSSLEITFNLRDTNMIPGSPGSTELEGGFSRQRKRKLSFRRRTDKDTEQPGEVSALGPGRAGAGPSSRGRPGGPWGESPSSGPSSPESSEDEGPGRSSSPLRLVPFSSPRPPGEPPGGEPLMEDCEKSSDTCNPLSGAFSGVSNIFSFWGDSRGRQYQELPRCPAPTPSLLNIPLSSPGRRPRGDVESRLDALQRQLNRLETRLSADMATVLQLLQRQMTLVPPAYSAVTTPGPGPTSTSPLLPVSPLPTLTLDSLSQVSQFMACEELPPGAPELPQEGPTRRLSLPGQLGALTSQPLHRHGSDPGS

For `COCCN(C)c1ncc(-c2nc3ccncc3n2-c2ccc(C)cc2)cn1` [Example 117, N-(2-Methoxyethyl)-N-methyl-5-[3-(4-methylphenyl)-3H-imidazo[4,5-c]pyridin-2-yl]pyrimidin-2-amine], the IC50 in assay [1] is 0.2 to 1.2 µM; in assay [2] it was greater than 10 µM.

`Clc1ccc(-n2c(-c3ccncc3Cl)cc3ccncc32)cc1` [Example 153, 3-Chloro-4-[1-(4-chlorophenyl)-1H-pyrrolo[2,3-c]pyridin-2-yl]pyridine]: the IC50 in assay [1] lay in the range of 0.05 to 0.2 µM; in assay [2], 1 to 10 µM.

Consider `CN1CCN(Cc2ccc(-c3nc4ccncc4n3-c3ccc(Cl)cc3)cc2)CC1` [Example 46, 1-({4-[3-(4-Chlorophenyl)-3H-imidazo[4,5-c]pyridin-2-yl]phenyl}methyl)-4-methylpiperazine; formic acid], for which the IC50 in assay [1] was less than 0.05 µM; in assay [2] it was greater than 10 µM.

As to `Clc1ccc(-n2c(-c3ccncc3)cc3ccncc32)cc1` [Example 120, 4-[1-(4-Chlorophenyl)-1H-pyrrolo[2,3-c]pyridin-2-yl]pyridine], the values for the IC50 in assay [1] and in assay [2] were 0.2 to 1.2 µM and 1 to 10 µM, respectively.

On to `Clc1ccc(-n2c(-c3cnc(N4CCNCC4)o3)nc3ccncc32)cc1` [Example 18, 1-{5-[3-(4-Chlorophenyl)-3H-imidazo[4,5-c]pyridin-2-yl]-1,3-oxazol-2-yl}piperazine dihydrochloride], for which the values for the IC50 in assay [1] and in assay [2] were 0.05 to 0.2 µM and greater than 10 µM, respectively.

Consider `O=c1cc(-c2cc3ccncc3n2-c2ccc(Cl)cc2)cc[nH]1` [Example 142, 4-[1-(4-Chlorophenyl)-1H-pyrrolo[2,3-c]pyridin-2-yl]-1,2-dihydropyridin-2-one], for which the IC50 lay within 0.05 to 0.2 µM in assay [1] and 1 to 10 µM in assay [2].

For `O=C1CN(c2ncc(-c3nc4ccncc4n3-c3ccc(Cl)cc3)cn2)CCN1` [Example 13, 4-{5-[3-(4-Chlorophenyl)-3H-imidazo[4,5-c]pyridin-2-yl]pyrimidin-2-yl}piperazin-2-one], the figures for the IC50 in assay [1] and in assay [2] were less than 0.05 µM and greater than 10 µM, respectively.

Consider `c1ccc(-n2c(-c3cnc(N4CCOCC4)nc3)cc3ccncc32)cc1` [Example 131, 4-(5-{1-Phenyl-1H-pyrrolo[2,3-c]pyridin-2-yl}pyrimidin-2-yl)morpholine], for which, in assay [2], the IC50 lay within 1 to 10 µM.

As to `CC(=O)N1CCN(c2ccc(-c3nc4ccncc4n3-c3ccc(F)cc3)cn2)CC1` [Example 86, 1-(4-{5-[3-(4-Fluorophenyl)-3H-imidazo[4,5-c]pyridin-2-yl]pyridin-2-yl}piperazin-1-yl)ethan-1-one], the 50% inhibitory concentration (IC50) in assay [1] is less than 0.05 µM; in assay [2], greater than 10 µM.

For `Cc1cc(F)ccc1-n1c(-c2cnc(N3CCOCC3)nc2)nc2ccncc21` [Example 55, 4-{5-[3-(4-Fluoro-2-methylphenyl)-3H-imidazo[4,5-c]pyridin-2-yl]pyrimidin-2-yl}morpholine], the half-inhibitory concentration (IC50) in assay [1] was less than 0.05 µM.

Turning to `Clc1ccc(-n2c(-c3ccc(CN4CCOCC4)cc3)nc3ccncc32)cc1` [Example 49, 4-({4-[3-(4-Chlorophenyl)-3H-imidazo[4,5-c]pyridin-2-yl]phenyl}methyl)morpholine], in assay [1], the IC50 is less than 0.05 µM.

For the compound `CN(C)c1ncc(-c2cc3ccncc3n2-c2ccc(Cl)cc2)cn1` [Example 137, 5-[1-(4-Chlorophenyl)-1H-pyrrolo[2,3-c]pyridin-2-yl]-N,N-dimethylpyrimidin-2-amine; bis(trifluoroacetic acid)], in assay [1], the IC50 was less than 0.05 µM.

As to `Cc1ccc(-n2c(-c3cnc(N4CCOCC4)nc3)cc3ccncc32)cc1` [Example 130, 4-{5-[1-(4-Methylphenyl)-1H-pyrrolo[2,3-c]pyridin-2-yl]pyrimidin-2-yl}morpholine], the IC50 in assay [1] fell in the range of 0.05 to 0.2 µM.

As for `Cc1cc(N2CCOCC2)ncc1-c1cc2ccncc2n1-c1ccc(Cl)cc1` [Example 129, 4-{5-[1-(4-Chlorophenyl)-1H-pyrrolo[2,3-c]pyridin-2-yl]-4-methylpyridin-2-yl}morpholine; bis(trifluoroacetic acid)], the IC50 in assay [1] is less than 0.05 µM.

For `CCn1ccc(-c2cc3ccncc3n2-c2ccc(Cl)cc2)cc1=O` [Example 144, 4-[1-(4-Chlorophenyl)-1H-pyrrolo[2,3-c]pyridin-2-yl]-1-ethyl-1,2-dihydropyridin-2-one], the 50% inhibitory concentration (IC50) in assay [1] fell in the range of 0.05 to 0.2 µM.

With `CN(C)c1cc(-c2nc3ccncc3n2-c2ccc(F)cc2)ccn1` [Example 109, 4-[3-(4-Fluorophenyl)-3H-imidazo[4,5-c]pyridin-2-yl]-N,N-dimethylpyridin-2-amine], the IC50 in assay [1] was in the range of 0.2 to 1.2 µM.

In the case of `Fc1ccc(-n2c(-c3cnc(C4CC4)nc3)nc3ccncc32)cc1` [Example 30, 2-Cyclopropyl-5-[3-(4-fluorophenyl)-3H-imidazo [4,5-c]pyridin-2-yl]pyrimidine], the 50% inhibitory concentration (IC50) in assay [1] fell in the range of 0.2 to 1.2 µM.

As for `Brc1ccc(-n2c(-c3cnc(N4CCOCC4)nc3)nc3ccncc32)cc1` [Example 59, 4-{5-[3-(4-Bromophenyl)-3H-imidazo[4,5-c]pyridin-2-yl]pyrimidin-2-yl}morpholine], in assay [1], the IC50 lay in the range of 0.05 to 0.2 µM.

Consider `Clc1ccc(-n2c(-c3cnc[nH]3)nc3ccncc32)cc1` [Example 44, 5-[3-(4-Chlorophenyl)-3H-imidazo[4,5-c]pyridin-2-yl]-1H-imidazole], for which the IC50 in assay [1] was in the range of 0.2 to 1.2 µM.

Regarding `Clc1ccc(-n2c(-c3csc(N4CCNCC4)n3)nc3ccncc32)cc1` [Example 17, 1-{4-[3-(4-Chlorophenyl)-3H-imidazo[4,5-c]pyridin-2-yl]-1,3-thiazol-2-yl}piperazine dihydrochloride], the IC50 in assay [1] fell in the range of 0.2 to 1.2 µM.

Consider `Oc1ccc(-n2c(-c3ccc(N4CCOCC4)nc3)nc3ccncc32)cc1` [Example 65, 4-{2-[6-(Morpholin-4-yl)pyridin-3-yl]-3H-imidazo[4,5-c]pyridin-3-yl}phenol], for which the IC50 in assay [1] is less than 0.05 µM.

For `Clc1ccc(-n2c(-c3ccccn3)cc3ccncc32)cc1` [Example 121, 2-[1-(4-Chlorophenyl)-1H-pyrrolo[2,3-c]pyridin-2-yl]pyridine], the IC50 in assay [1] was less than 0.05 µM.

In the case of `Cn1c(-c2cc3ccncc3n2-c2ccc(Cl)cc2)cccc1=O` [Example 145, 6-[1-(4-Chlorophenyl)-1H-pyrrolo[2,3-c]pyridin-2-yl]-1-methyl-1,2-dihydropyridin-2-one], the IC50 in assay [1] was less than 0.05 µM.

Regarding `Cc1ccc(-n2c(-c3cnc(N4CCOCC4)nc3)nc3ccncc32)cn1` [Example 58, 4-{5-[3-(6-Methylpyridin-3-yl)-3H-imidazo[4,5-c]pyridin-2-yl]pyrimidin-2-yl}morpholine], in assay [1], the IC50 was in the range of 0.2 to 1.2 µM.

Turning to `O=c1cc(-c2cc3ccncc3n2-c2ccccc2)ccn1C1CC1` [Example 155, 1-Cyclopropyl-4-{1-phenyl-1H-pyrrolo[2,3-c]pyridin-2-yl}-1,2-dihydropyridin-2-one], the IC50 in assay [1] was 0.2 to 1.2 µM.

As to `Fc1ccccc1-n1c(-c2ccc(N3CCOCC3)nc2)nc2ccncc21` [Example 68, 4-{5-[3-(2-Fluorophenyl)-3H-imidazo[4,5-c]pyridin-2-yl]pyridin-2-yl}morpholine], in assay [1], the IC50 was less than 0.05 µM.

Take `Fc1ccc(-n2c(-c3cnc(NC4CC4)nc3)nc3ccncc32)cc1` [Example 10, N-Cyclopropyl-5-[3-(4-fluorophenyl)-3H-imidazo [4,5-c]pyridin-2-yl]pyrimidin-2-amine]: in assay [1], the IC50 is 0.05 to 0.2 µM.

For the compound `Brc1ccc(-n2c(-c3cnc(N4CCOCC4)nc3)cc3ccncc32)cc1` [Example 133, 4-{5-[1-(4-Bromophenyl)-1H-pyrrolo[2,3-c]pyridin-2-yl]pyrimidin-2-yl}morpholine], the IC50 in assay [1] was less than 0.05 µM.

Take `CCOCCNc1ncc(-c2nc3ccncc3n2-c2ccc(F)cc2)cn1` [Example 42, N-(2-Ethoxyethyl)-5-[3-(4-fluorophenyl)-3H-imidazo [4,5-c]pyridin-2-yl]pyrimidin-2-amine]: the IC50 in assay [1] lay within 0.05 to 0.2 µM.
